For data set [1], the system named is fecal bile acid (FBA). In words: Fecal bile acids in rats, LUM001 Q.D. for four days. It counts as in vivo, Wistar rats. As to the method:
Male Wistar rats (Charles River Laboratories) weighing 275-300 grams were single-housed in a constant temperature environment with alternating 12 hour light and dark cycles. All animals had continuous access to a commercial rodent diet as well as water. In each study rats were randomly assigned to either vehicle or treatment groups and were administered intragastric doses (Q.D. gavage) of drug dissolved in aqueous 0.2% (v/v) Tween 80 (2 ml kg body weight). The animals were dosed in the morning between 9:00 and 10:00 a.m. for four consecutive days. Fecal samples were collected on papers underneath each cage during the final 48 hour period of the study and analyzed for bile acid content.
Cage papers containing the 48-hour fecal samples were collected at approximately 9:00 a.m. on the final day and used to determine the individual fecal bile acid (FBA) concentration for each animal. Fecal samples from each rat were weighed and a weight of distilled water (1 gram/mL) equal to 2 times the total weight of feces was added to each sample container (e.g., 20 mL water to 10 grams feces). The containers were stored overnight at 4° C. Each sample was homogenized for approximately 45 seconds using a small food processor to yield a homogeneous slurry. 1.4 grams of the homogenate was weighed into 16×100 polypropylene tubes and 2.6 mL of tertiary butanol/distilled water (2:0.6) added to yield a final concentration of 50% (v/v) tertiary butanol in water. The sample was extracted by incubation for 45 minutes in a 37° C. water bath, and subjected to centrifugation at 3000×g for 13 minutes and the supernatant extract collected.
The concentration of bile acids […] in the extract was determined using a 96-well enzymatic assay system (4,5). 20 μl aliquots of each butanol extract was added to two sets of triplicate wells in a 96-well assay plate (one set on each half of the plate). Standardized sodium taurocholate solutions (0.2 and 0.9 mM) and standardized fecal extract solutions (previously made from pooled fecal samples collected from control and drug-treated rats) were analyzed in parallel to provide a bile acid standard curve and internal quality control samples, respectively. 20 μl aliquots of the sodium taurocholate standard were serially diluted to generate a standard curve and were added to two separate sets of triplicate wells.
To each well, 230 μl of reaction mixture containing 1M hydrazine hydrate, 0.1 M pyrophosphate and 0.46 mg/ml NAD was added. To start the reaction, a 50 μl aliquot of either 3a-hydroxysteroid dehydrogenase enzyme (HSD; 0.8 units/ml) or assay buffer (0.1 M sodium pyrophosphate) was added to one set of triplicate wells for each sample, respectively, with the set containing the assay buffer serving as the reaction blank. All reagents were obtained from Sigma Chemical Co., St. Louis, Mo. Following a 60 minute incubation at room temperature, the optical density at 340 nm was measured and the mean of each set of triplicate wells was calculated. The difference in optical density between the corresponding wells containing the HSD enzyme and the wells containing the assay buffer was used to determine the bile acid concentration (mM) of each sample by comparison to the sodium taurocholate standard curve. The bile acid concentration of the extract and the weight of the fecal homogenate (grams) were used to calculate FBA concentration in mmoles/day for each animal. The mean FBA concentration (mmoles/day) of the vehicle group was subtracted from the FBA concentration of individual rats in a treatment group to yield the increase in FBA concentration due to drug treatment for that animal. A mean value for the increase in FBA for each group was determined and compared to the vehicle group used, to determine compound dosing efficacy. Data was the average from the two days of fecal collection (Mean±SEM, n=4-20). […]

The nature of data set [2]: Systemic exposure of LUM001 in patients under 18 years (study NB-00-02-014). It counts as in vivo, human. Particulars: for Average serum drug exposure: day eight. As to the method:
LUM001 has been administered to forty patients under the age of 18 years old. […] The drug was administered once-a-day (QD) in the morning for fourteen days. […] These doses are similar to those using to treat patients with Barrett's esophagus or GERD.

In data set [3] the test system is Alanine Aminotransferase (ALAT). Put plainly: Plasma alanine aminotransferase in ZDF rats, week 3. In kind it is in vivo. The following applies: twice daily oral gavage.
Data set [4] relates to plasma amylase. In words: Plasma amylase in ZDF rats, week 3. It counts as in vivo. Particulars: twice daily oral gavage.

Structures are written as SMILES.

The text below walks through data of patent US20140271734A1, “BILE ACID RECYCLING INHIBITORS FOR TREATMENT OF BARRETT'S ESOPHAGUS AND GASTROESOPHAGEAL REFLUX DISEASE” (LUMENA PHARMACEUTICALS, INC., priority 2013, published 2014).

Consider `CCCCC1(CCCC)CS(=O)(=O)c2ccc(N(C)C)cc2[C@@H](c2ccc(OCc3ccc(C[N+]45CCN(CC4)CC5)cc3)cc2)[C@H]1O` [LUM001], for which the Fecal Bile Acids in data set [1] (Q.D. 0.0006 mg/kg/day) came to 34 µmol/day; in data set [1] (Q.D. 0.002 mg/kg/day) it was 26.6 µmol/day; in data set [1] (Q.D. 0.003 mg/kg/day) it was 31.3 µmol/day; in data set [1] (Q.D. 0.008 mg/kg/day), 25.8 µmol/day; in data set [1] (Q.D. 0.016 mg/kg/day) it was 41.6 µmol/day; in data set [1] (Q.D. 0.04 mg/kg/day) it was 44 µmol/day. For the same molecule, the Fecal Bile Acids in data set [1] (Q.D. 0.08 mg/kg/day) was 55.6 µmol/day; in data set [1] (Q.D. 0.2 mg/kg/day), 62.7 µmol/day; in data set [1] (Q.D. 0.4 mg/kg/day) it was 62.3 µmol/day; in data set [1] (Q.D. 2 mg/kg/day), 71.6 µmol/day; in data set [1] (all doses, Q.D. gavage for four days) it was “significantly increased fecal bile acids for all doses”. In addition, the Fecal Bile Acids, Increase over Vehicle (Delta) came out at 12.1 µmol/day in data set [1] (Q.D. 0.0006 mg/kg/day); 4.1 µmol/day in data set [1] (Q.D. 0.002 mg/kg/day); 10.7 µmol/day in data set [1] (Q.D. 0.003 mg/kg/day); 5.9 µmol/day in data set [1] (Q.D. 0.008 mg/kg/day); 24.7 µmol/day in data set [1] (Q.D. 0.016 mg/kg/day); 21.7 µmol/day in data set [1] (Q.D. 0.04 mg/kg/day). Further, the Fecal Bile Acids, Increase over Vehicle (Delta) in data set [1] (Q.D. 0.08 mg/kg/day) worked out at 35.2 µmol/day; in data set [1] (Q.D. 0.2 mg/kg/day) it was 40.8 µmol/day; in data set [1] (Q.D. 0.4 mg/kg/day), 47 µmol/day; in data set [1] (Q.D. 2 mg/kg/day), 54.6 µmol/day. In addition, the “Average serum drug exposure” value in data set [2] (Subject 0304, 1.0 mg QD (24.3 μg/kg)) amounted to 0.0 ng/mL; in data set [2] (Subject 0308, 1.0 mg QD (28.9 μg/kg)) it was 0.0 ng/mL; in data set [2] (Subject 0309, 1.0 mg QD (35.0 μg/kg)) it was 0.0 ng/mL; in data set [2] (Subject 0410, 2.5 mg QD (42.0 μg/kg)), 0.0 ng/mL; in data set [2] (Subject 0510, 5.0 mg QD (168.4 μg/kg)), 0.0 ng/mL. For the same molecule, in data set [2] (patients under 18 years, QD, measured on day eight), the “Systemic exposure of LUM001” value is reported as “confirmed to be minimally absorbed”.
On to `CCCC[C@]1(CC)CS(=O)(=O)c2ccc(N(C)C)cc2[C@@H](c2cccc(NC(=O)N[C@@H]3O[C@H](COS(=O)(=O)[O-])[C@@H](O)[C@H](OCc4ccccc4)[C@H]3O)c2)[C@H]1O.CCO.O.[K+]` [LUM002, potassium((2R,3R,4S,5R,6R)-4-benzyloxy-6-{3-[3-((3S,4R,5R)-3-butyl-7-dimethylamino-3-ethyl-4-hydroxy-1,1-dioxo-2,3,4,5-tetrahydro-1H-benzo[b]thiepin-5-yl)-phenyl]-ureido}-3,5-dihydroxy-tetrahydro-pyran-2-ylmethyl)sulphate ethanolate, hydrate], for which the “Plasma alanine aminotransferase (ALAT)” value in data set [3] is reported as “Neither LUM002 nor SC-435 caused statistically significant reductions”. Moreover, in data set [4], the Plasma amylase entry is “Neither LUM002 nor SC-435 caused a statistically significant changes”.
